This is an account of results in patent US20160251402A1, “MICROPEPTIDES AND USE OF SAME FOR MODULATING GENE EXPRESSION” (UNIVERSITE PAUL SABATIER TOULOUSE III, priority 2013, published 2016).

“Also recorded” adds a separate entry of the source.

For one experiment, the system named is Arabidopsis thaliana. The experiment in a line: Plant growth of Arabidopsis thaliana after 3 weeks of watering. The experiment is classed as in vivo. The note with it: watered with 0.1 μM of synthetic peptide, 3 weeks of growth, vs water.
In experiment [1] the test system is AtmiR319a. Nature of the experiment: Relative expression of AtmiR319a in A. thaliana (qRT-PCR). It counts as in vivo, Arabidopsis thaliana. The note with it: plant in which AtmiPEP319a1 is overexpressed vs control plant.
The test system of a further experiment is MtmiR169d. Nature of the experiment: Relative expression of MtmiR169d in M. truncatula. It counts as in vivo, Medicago truncatula. Here is the method:
(§1) The total RNA was extracted from roots of M. truncatula or from tobacco leaves using the extraction kit RNeasy Plant Mini Kit (Qiagen). The reverse transcription was performed using the reverse transcriptase SuperScript II (Invitrogen) starting from 500 ng of total RNA. Three repetitions (n=3) were carried out, each with two technical repetitions. Each experiment was repeated from two to three times. The amplifications by qPCR were carried out using a LightCycler 480 System thermocycler (Roche Diagnostics) by the method described in Lauressergues et al. (Plant J., 72(3): 512-22, 2012).

A further experiment concerns MtmiR171e. Nature of the experiment: Relative expression of MtmiR171e in M. truncatula. The note with it: plant in which MtmiPEP171e is overexpressed vs control plant. The experiment is classed as in vivo, Medicago truncatula. Here is the method: as §1
(§2) The composite plants having roots transformed with Agrobacterium rhizogenes were obtained by the method described in Boisson-Dernier et al. (Mol Plant-Microbe Interact, 18: 1269-1276, 2005). The transformed roots were verified and selected by observations of DsRED with a binocular fluorescence magnifier. The control roots correspond to roots transformed with A. rhizogenes not containing the pPEX-DsRED vector. Transformation of the tobacco leaves was carried out by the method described in Combier et al. (Genes & Dev, 22: 1549-1559, 2008).

The subject of experiment [2] is AtmiR165a. Nature of the experiment: Northern blot of AtmiR165a in A. thaliana roots. It counts as in vivo, Arabidopsis thaliana. The note with it: 0.1 μM synthetic peptide dissolved in water vs water; U6 loading control.
The subject of experiment [3] is pri-miR165a. The experiment in a line: RNA stability of pri-miR165a in the presence of cordycepin. The experiment is classed as in vivo, Arabidopsis thaliana. The note with it: in the presence of cordycepin (inhibitor of RNA synthesis), peptide at 10 μM. How it is done:
For each condition, two week old plants that have been cultivated vertically on solid MS medium have been transferred in 6-well plates containing 1 ml of liquid MS medium. […] Each indivual experiment has been made 3 times.

For experiment [4], the system named is AtmiR165a. Nature of the experiment: Accumulation of AtmiR165a in roots of A. thaliana (relative expression). The experiment is classed as in vivo, Arabidopsis thaliana. The note with it: roots treated with 0.01, 0.1, 1 or 10 μM peptide vs water.
In the next experiment the test system is PHAVOLUTA: PHV. Nature of the experiment: Expression of PHAVOLUTA (PHV) in roots of A. thaliana. It counts as in vivo, Arabidopsis thaliana. The note with it: roots treated with 0.01, 0.1, 1 or 10 μM peptide vs water.
The subject of experiment [5] is AtmiR165a. The experiment in a line: Accumulation of AtmiR165a in the model plant of tobacco. The experiment is classed as in vivo, Nicotiana benthamiana. The note with it: tobacco expressing AtmiR165a, overexpression of AtmiORF165a. How it is done:
(§3) At present, AtmiPEP165a and AtmiPEP319a2, identified in Arabidopsis thaliana, have already been characterized.
as §1
(§4) For the miPEPs 165a and 319a, the corresponding miORFs were cloned into pBIN19 by the method described in Combier et al. (Genes & Dev, 22: 1549-1559, 2008).
as §2

The next experiment has as its system REVOLUTA: REV. The experiment in a line: Expression of REVOLUTA (REV) in roots of A. thaliana. The note with it: roots treated with 0.01, 0.1, 1 or 10 μM peptide vs water. The experiment is classed as in vivo, Arabidopsis thaliana.
For experiment [6], the system named is Arabidopsis thaliana root growth. Nature of the experiment: Root growth in Arabidopsis thaliana. The experiment is classed as in vivo. The note with it: plant treated with AtmiPEP165a vs control plant of the same age.
Experiment [7] has as its system pri-miR165a. Nature of the experiment: Relative expression of pri-miR165a in A. thaliana (Col-0 and nrpb2-3). The experiment is classed as in vivo, Arabidopsis thaliana.
Source text: Moreover, to determinate the mode of action of miPEPs regarding the accumulation of their own miRs, the expression of pri-miR165a has been analysed in wildtype plants and in plants that have been transformed to overexpress miPEP165a (FIG. 35).
Moreover, the expression of pri-miR165a has been analysed in wildtype plants (Col-0 plants) and in mutated plants having a low allele of the second large subunit of RNA polymerase II (nrpb2-3 plants). […] It appears that the miPEP operates as a transcription regulator.
as §1

For the next experiment, the system named is PHABOLUSA: PHB. The experiment in a line: Expression of PHABOLUSA (PHB) in roots of A. thaliana. The note with it: roots treated with 0.01, 0.1, 1 or 10 μM peptide vs water. It counts as in vivo, Arabidopsis thaliana.
For another experiment, the system named is AtmiR160b. Nature of the experiment: Relative expression of AtmiR160b in A. thaliana. The note with it: plant in which AtmiPEP160b1 is overexpressed vs control plant. The experiment is classed as in vivo, Arabidopsis thaliana.
In experiment [8] the test system is AtmiR164a. The experiment in a line: Relative expression of AtmiR164a in A. thaliana (qRT-PCR). The experiment is classed as in vivo, Arabidopsis thaliana. The note with it: plant watered once a day with peptide at 0.1 μM vs control plant. (In qPCR the cycle at which signal appears reflects the starting amount.)
In experiment [9] the test system is AtmiR164a. The experiment in a line: Northern blot of AtmiR164a in A. thaliana roots. It counts as in vivo, Arabidopsis thaliana. The note with it: 0.1 μM synthetic peptide dissolved in water vs water; U6 loading control. Here is the method: Northern blot analysis was carried out according to the protocol described in Lauressergues et al. Plant J., 72(3): 512-22, 2012.
The biological samples were homogenized in a buffer containing 0.1 M of NaCl, 2% of SDS, 50 mM of Tris-HCl (pH 9), 10 mM of EDTA (pH 8) and 20 mM of mercaptoethanol, and the RNA was extracted twice with a phenol/chloroform mixture and was precipitated with ethanol.
The RNA was loaded on PAGE 15% gel and transferred to a nylon membrane (HybondNX, Amersham). RNA was hybridized with a radioactive oligonucleotide probe labelled at its end, in order to detect the RNA U6 or for miR164a.
The hybridizations were carried out at 55° C. The hybridization signals were quantified using a phosphorimager (Fuji) and normalized with the signal of the specific probe of RNA U6.

Experiment [10] concerns AtmiR319a. The experiment in a line: Accumulation of AtmiR319a in the model plant of tobacco. It counts as in vivo, Nicotiana benthamiana. The note with it: tobacco expressing AtmiR319a, overexpression of AtmiORF319a. How it is done: as §3, §1, §4, §2
For another experiment, the system named is DmmiR8. Nature of the experiment: Relative expression of Pre-miR8 in transfected Drosophila melanogaster cells. The experiment is classed as cell-based. Here is the method:
S2 cells are cultured in a T75 flask in 12 mL of Schneider's medium (GIBCO), containing 1% of penicillin 100 U/mL and […] (Sigma) and 10% of decomplemented foetal calf serum (30 min at 56° C.). The transient transfections are carried out using the FuGENE® HD transfection kit (Roche), according to the recommendations. Conventionally, 1.5 million S2 cells, previously seeded in 6-well plates (3 ml of medium per well), are transfected with 250 ng of total plasmid DNA. The DNA is brought into contact with the Fugene (3 μl) in 100 μl of OPTIMEM (GIBCO). After 20 minutes, the transfection reagent formed is brought into contact with the cells in the culture medium. The RNA of the cells is extracted 66 h after transfection.

For the molecule “MNIHTYHHLLFPSLVFHQSSDVPNALSLHIHTYEYIIVVIDPFRITLAFR [AtmiPEP319a1]”, the plant growth entry in the experiment on Arabidopsis thaliana was “increases plant growth significantly”. Further, the “relative expression of AtmiR319a” value in the experiment on AtmiR319a [1] is reported as “increase in the accumulation of AtmiR319a; also recorded: increase in the relative expression of AtmiR319a; also recorded: increase in the accumulation of miR319a”.
As for “MVKESFMERLKVR (listed as Medicago truncatula) [MtmiPEP169d]”, in the experiment on MtmiR169d (overexpression of the miPEP in M. truncatula (as worded in Example 1B)), the “accumulation of MtmiR169d” value is on record as “induces an accumulation of MtmiR169d”. The “relative expression of MtmiR169d” value with MtmiR169d (plant watered once a day with peptide at 0.1 μM vs control plant) is given as “increase in the relative expression of MtmiR169d”.
Take “MMVFGKPKKAMLVRFNPKTDLHV (listed as Medicago truncatula) [MtmiPEP171e]”: the “relative expression of MtmiR171e” value in the experiment with MtmiR171e is reported as “increase in the relative expression of MtmiR171e; also recorded: induces an accumulation of MtmiR171e”.
For the molecule “MRVKLFQLRGMLSGSRIL (listed as Arabidopsis thaliana) [AtmiPEP165a]”, the “accumulation of AtmiR165a (Northern blot)” value with AtmiR165a [2] is “increase in the accumulation of miR165a”. Also, the “stability of pri-miR165a” value with pri-miR165a [3] is “does not induce a better stability of pri-miR165a”; in the experiment on pri-miR165a [3] (listed as miPEP165a), “does not operate as a RNA stabilizer, but rather as a transcription activator of pri-miR165a”. The “relative expression of AtmiR165a” value in the experiment with AtmiR165a [4] is listed as “dose-dependent effect of the accumulation of AtmiR165a”; with AtmiR165a [4] (listed as miPEP165a) it was “dose-dependent effect on the accumulation of miR165a”. In addition, the “relative expression of PHV” value in the experiment on PHAVOLUTA: PHV is recorded as “negative regulation of its target genes”. In addition, in the experiment on AtmiR165a [5], the “accumulation of AtmiR165a” value is “increase in the accumulation”. Further, in the experiment on REVOLUTA: REV, the “relative expression of REV” value is reported as “negative regulation of its target genes”. For the same molecule, the root growth phenotype result in experiment [6] is listed as “greatly accelerated root growth”. Further, the “relative expression of pri-miR165a” value was “not capable of accumulating AtmiR165a in response to AtmiPEP165a” in the experiment with pri-miR165a [7] (nrpb2-3 mutated plants vs wildtype (Col-0), water or peptide at 10 μM); “mutated plants do not show an increase in the accumulation of pri-miR165 in response to miPEP165a” in the experiment with pri-miR165a [7] (nrpb2-3 mutated plants vs wildtype (Col-0), water or peptide at 10 μM, listed as miPEP165a); “increase in the relative expression of AtmiR165a” in the experiment on pri-miR165a [7] (roots watered once a day with peptide at 10 μM vs control roots). Further, the “expression of pri-miR165a” value in the experiment with pri-miR165a [7] (plants that overexpress miPEP165a vs wildtype plants) is reported as “enhanced”. Besides, the “relative expression of PHB” value in the experiment with PHABOLUSA: PHB is recorded as “negative regulation of its target genes”.
Regarding “MFSPQ (listed as Arabidopsis thaliana) [AtmiPEP160b1]”, in the experiment on AtmiR160b, the “relative expression of AtmiR160b” value is on record as “increase in the relative expression of AtmiR160b; also recorded: induces an accumulation of AtmiR160b”.
On to “MPSWHGMVLLPYVKHTHASTHTHTHNIYGCACELVFH [AtmiPEP164a1]”, for which, in the experiment on AtmiR164a [8], the “relative expression of AtmiR164a” value is “increase in the relative expression of AtmiR164a”. In addition, the plant growth result with Arabidopsis thaliana is recorded as “increases plant growth significantly”. Besides, the “accumulation of AtmiR164a (Northern blot)” value in the experiment with AtmiR164a [9] is “increase in the accumulation of miR164a”.
“MFQTLYLFIYIHTNILLLS (listed as Arabidopsis thaliana) [AtmiPEP319a2]”: the “accumulation of AtmiR319a” value with AtmiR319a [10] is reported as “increase in the accumulation”.

B1: MEPGFVFVLFPTHLSTQHTQREKSILVMGLNLQSAKQSDKQNSKERKKNTQINSQRIPYRQGGQCSKVLSP (peptide)
chain: MEPGFVFVLFPTHLSTQHTQREKSILVMGLNLQSAKQSDKQNSKERKKNTQINSQRIPYRQGGQCSKVLSP
modifications: Drosophila melanogaster
For B1, the “relative expression of Pre-miR8” value with DmmiR8 (cells overexpressing DmmiPEP8 vs miPEP8 with mutated start codons) and in the experiment with DmmiR8 (cells overexpressing wild-type DmmiR8 vs DmmiR8 with mutated miPEP8 start codons) was “increases the expression of DmmiR8” throughout.
